Data taken from ChEMBL document CHEMBL1201862, “PubChem BioAssay data set” (2004).
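Assay format: 96-well plates, 48-hour exposure. At the GI50, growth is halved.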 The source made the active and inactive calls. Rule as the data show it: active = GI50 up to about 1.1 µM and inactive = higher.

How the values were obtained:
Assay in all cases: NCI anticancer screen, dose series, 48 h
A549 = tested on: A549
COLO 205 = tested on: COLO 205
HCC 2998 = tested on: HCC 2998
HOP-62 = tested on: HOP-62
K562 = tested on: K562
KM12 = tested on: KM12
LOX IMVI = tested on: LOX IMVI
NCI-H226 = tested on: NCI-H226
OVCAR-4 = tested on: OVCAR-4
RPMI-8226 = tested on: RPMI-8226
RXF 393 = tested on: RXF 393
SF-295 = tested on: SF-295
SNB-19 = tested on: SNB-19
SNB-75 = tested on: SNB-75
SR = tested on: SR
U-251 = tested on: U-251
UACC-62 = tested on: UACC-62
UO-31 = tested on: UO-31
MCF7 = tested on: MCF7
NCI/ADR-RES = tested on: NCI/ADR-RES

Structure (SMILES)	GI50 (A549)	GI50 (COLO 205)	GI50 (HCC 2998)	GI50 (HOP-62)	GI50 (K562)	GI50 (KM12)	GI50 (LOX IMVI)	GI50 (NCI-H226)	GI50 (OVCAR-4)	GI50 (RPMI-8226)	GI50 (RXF 393)	GI50 (SF-295)	GI50 (SNB-19)	GI50 (SNB-75)	GI50 (SR)	GI50 (U-251)	GI50 (UACC-62)	GI50 (UO-31)	GI50 (MCF7)	GI50 (NCI/ADR-RES)
Cc1ccccc1NC(=O)/C=N/O	> 100 µM (inactive)	> 100 µM (inactive)	> 100 µM (inactive)	> 100 µM (inactive)	> 100 µM (inactive)	> 100 µM (inactive)	> 100 µM (inactive)	> 100 µM (inactive)	> 100 µM (inactive)	> 100 µM (inactive)	> 100 µM (inactive)	> 100 µM (inactive)	> 100 µM (inactive)	> 100 µM (inactive)	> 100 µM (inactive)	> 100 µM (inactive)	14.6 µM (inactive)	> 100 µM (inactive)	–	–
COc1cc2c(cc1OC)[C@@H]([C@H](O)c1ccccc1)NCC2	> 100 µM (inactive)	> 100 µM (inactive)	> 100 µM (inactive)	> 100 µM (inactive)	> 100 µM (inactive)	> 100 µM (inactive)	> 100 µM (inactive)	> 100 µM (inactive)	> 100 µM (inactive)	> 100 µM (inactive)	> 100 µM (inactive)	> 100 µM (inactive)	> 100 µM (inactive)	55 µM (inactive)	> 100 µM (inactive)	> 100 µM (inactive)	> 100 µM (inactive)	> 92.7 µM (inactive)	–	–
CC1=C(C(=O)Nc2cccc3c2C(=O)NC3=O)CC(C(=O)Nc2cccc3c2C(=O)NC3=O)=C(C)N1	> 100 µM (inactive)	40.7 µM (inactive)	95.5 µM (inactive)	> 100 µM (inactive)	> 100 µM (inactive)	> 100 µM (inactive)	> 100 µM (inactive)	–	> 100 µM (inactive)	> 100 µM (inactive)	> 100 µM (inactive)	> 100 µM (inactive)	> 100 µM (inactive)	88.3 µM (inactive)	> 100 µM (inactive)	> 100 µM (inactive)	> 100 µM (inactive)	> 100 µM (inactive)	> 100 µM (inactive)	–
CC12CCC(=O)C[C@H]1CCC(OC=O)C2Br (stereo partly drawn)	> 100 µM (inactive)	> 100 µM (inactive)	> 100 µM (inactive)	> 100 µM (inactive)	> 100 µM (inactive)	> 100 µM (inactive)	> 100 µM (inactive)	> 100 µM (inactive)	> 100 µM (inactive)	> 100 µM (inactive)	–	> 100 µM (inactive)	> 100 µM (inactive)	> 100 µM (inactive)	> 100 µM (inactive)	> 100 µM (inactive)	> 100 µM (inactive)	> 100 µM (inactive)	–	–
COc1ccc(C(C2=C(O)CC(C)OC2=O)C2=C(O)CC(C)OC2=O)cc1 (stereo not drawn)	> 100 µM (inactive)	> 100 µM (inactive)	> 100 µM (inactive)	> 100 µM (inactive)	> 100 µM (inactive)	> 100 µM (inactive)	> 100 µM (inactive)	> 100 µM (inactive)	> 100 µM (inactive)	> 100 µM (inactive)	–	> 100 µM (inactive)	> 100 µM (inactive)	> 100 µM (inactive)	> 100 µM (inactive)	> 100 µM (inactive)	> 100 µM (inactive)	> 100 µM (inactive)	–	–
Cn1c(C(C#N)c2cc(Cl)ncn2)nc2ccccc21 (stereo not drawn)	> 100 µM (inactive)	> 100 µM (inactive)	–	> 100 µM (inactive)	–	> 100 µM (inactive)	> 100 µM (inactive)	> 100 µM (inactive)	> 100 µM (inactive)	> 100 µM (inactive)	> 100 µM (inactive)	> 100 µM (inactive)	> 100 µM (inactive)	> 100 µM (inactive)	–	> 100 µM (inactive)	–	> 100 µM (inactive)	–	> 100 µM (inactive)
Cc1cc(C[C@H]2O[C@@H]3OC(C)(C)O[C@@H]3[C@H]3OC(C)(C)O[C@H]32)c2ccccc2n1	63.4 µM (inactive)	> 100 µM (inactive)	> 100 µM (inactive)	55.3 µM (inactive)	48.1 µM (inactive)	54.8 µM (inactive)	> 100 µM (inactive)	55.3 µM (inactive)	> 100 µM (inactive)	27.1 µM (inactive)	39.1 µM (inactive)	> 100 µM (inactive)	> 100 µM (inactive)	> 100 µM (inactive)	34.8 µM (inactive)	> 100 µM (inactive)	> 100 µM (inactive)	33.3 µM (inactive)	–	34 µM (inactive)
COC(=O)C(=O)C(C(=O)C(=O)Nc1ccc(C)cc1C)c1nc2ccccc2nc1O (stereo not drawn)	31.7 µM (inactive)	79.3 µM (inactive)	67.3 µM (inactive)	39.4 µM (inactive)	42.5 µM (inactive)	64.3 µM (inactive)	47 µM (inactive)	37.4 µM (inactive)	> 100 µM (inactive)	35 µM (inactive)	17.8 µM (inactive)	> 100 µM (inactive)	> 100 µM (inactive)	15 µM (inactive)	35.8 µM (inactive)	57.1 µM (inactive)	37.1 µM (inactive)	30.9 µM (inactive)	–	–
CCO/C=N/C1=C(C#N)C(c2ccc(OC)c(OC)c2)c2c(-c3ccccc3)nn(-c3ccccc3)c2O1 (stereo not drawn)	18.3 µM (inactive)	13.1 µM (inactive)	> 100 µM (inactive)	17.7 µM (inactive)	6.68 µM (inactive)	8.02 µM (inactive)	15.4 µM (inactive)	11.3 µM (inactive)	–	21.4 µM (inactive)	12.2 µM (inactive)	11.1 µM (inactive)	15.9 µM (inactive)	15.5 µM (inactive)	–	12.7 µM (inactive)	14.4 µM (inactive)	17.7 µM (inactive)	16.6 µM (inactive)	15.6 µM (inactive)
CCOP(=O)(OCC)[C@H]1OC(C)(C)O[C@@H]1CO	> 100 µM (inactive)	> 100 µM (inactive)	> 100 µM (inactive)	> 100 µM (inactive)	–	> 100 µM (inactive)	> 100 µM (inactive)	–	> 100 µM (inactive)	> 100 µM (inactive)	–	> 100 µM (inactive)	> 100 µM (inactive)	–	–	> 100 µM (inactive)	> 100 µM (inactive)	–	> 100 µM (inactive)	> 100 µM (inactive)
O=C(Nn1c(-c2ccccc2)nc2ccccc2c1=O)c1ccccn1	> 100 µM (inactive)	> 100 µM (inactive)	> 100 µM (inactive)	> 100 µM (inactive)	78.5 µM (inactive)	83.6 µM (inactive)	> 100 µM (inactive)	–	> 100 µM (inactive)	> 100 µM (inactive)	45.3 µM (inactive)	98.9 µM (inactive)	> 100 µM (inactive)	42.1 µM (inactive)	> 100 µM (inactive)	75.7 µM (inactive)	42.3 µM (inactive)	> 100 µM (inactive)	–	> 100 µM (inactive)
Cc1ccccc1NC(=O)/C(=N\NC(N)=S)C(C#N)c1ccccc1 (stereo not drawn)	> 100 µM (inactive)	> 100 µM (inactive)	> 100 µM (inactive)	> 100 µM (inactive)	> 100 µM (inactive)	> 100 µM (inactive)	> 100 µM (inactive)	> 100 µM (inactive)	> 100 µM (inactive)	> 100 µM (inactive)	> 100 µM (inactive)	> 100 µM (inactive)	> 100 µM (inactive)	> 100 µM (inactive)	> 100 µM (inactive)	> 100 µM (inactive)	> 100 µM (inactive)	> 100 µM (inactive)	–	–
COc1cc(C2C(Cl)C(=O)N2NC(=O)Cc2ccccc2)ccc1O (stereo not drawn)	> 100 µM (inactive)	> 100 µM (inactive)	57.5 µM (inactive)	> 100 µM (inactive)	35.2 µM (inactive)	91 µM (inactive)	77.4 µM (inactive)	55.6 µM (inactive)	> 100 µM (inactive)	32.6 µM (inactive)	59 µM (inactive)	> 100 µM (inactive)	47.3 µM (inactive)	35.8 µM (inactive)	18.3 µM (inactive)	79.3 µM (inactive)	73.3 µM (inactive)	22.6 µM (inactive)	–	–
CCOc1ccc(/C(Cl)=C(\C=O)c2ccc(OC)c(OC)c2)cc1OCC	46.9 µM (inactive)	61.5 µM (inactive)	30 µM (inactive)	30.1 µM (inactive)	23.5 µM (inactive)	91.4 µM (inactive)	64.1 µM (inactive)	67.1 µM (inactive)	38.7 µM (inactive)	28.1 µM (inactive)	31.4 µM (inactive)	72.6 µM (inactive)	55.3 µM (inactive)	29.9 µM (inactive)	20.3 µM (inactive)	32.9 µM (inactive)	33 µM (inactive)	53 µM (inactive)	–	–
O=C1NC(=O)c2ccc([N+](=O)[O-])c3cccc1c23	20.8 µM (inactive)	14.9 µM (inactive)	24.7 µM (inactive)	20 µM (inactive)	10.9 µM (inactive)	–	–	14.3 µM (inactive)	20 µM (inactive)	14.5 µM (inactive)	15.5 µM (inactive)	17.6 µM (inactive)	19.5 µM (inactive)	40.1 µM (inactive)	–	15.4 µM (inactive)	13.9 µM (inactive)	16.3 µM (inactive)	11.2 µM (inactive)	–
Cc1ccc(/C=C2\CNC/C(=C\c3ccc(C)cc3)C2=O)cc1	2.83 µM (inactive)	2.13 µM (inactive)	1.67 µM (inactive)	2.72 µM (inactive)	0.323 µM (active)	1.05 µM (active)	0.615 µM (active)	1.84 µM (inactive)	2.34 µM (inactive)	0.248 µM (active)	–	3.54 µM (inactive)	1.65 µM (inactive)	22.9 µM (inactive)	0.44 µM (active)	0.341 µM (active)	2.04 µM (inactive)	1.77 µM (inactive)	0.513 µM (active)	–
